In this series the test system is red blood cells (RBCs). Kind of series: flow cytometry of liposomal loading of carboxyfluorescein/trehalose into red blood cells, FIGS. 1A-1E. Type of series: cell-based, human. Conditions: no liposomes (FIG. 1C). On the procedure:
However, it should be noted that the ratio of DPPC to cholesterol can, of course, be varied, as will be appreciated by those of ordinary skill in the art. The liposomes also have an aqueous core that can be composed of, by way of example only, 3.3 mM NaCl, 40 mM KCl, 1.7 mM glucose, 6.7 mM HEPES, 200 mM sucrose or trehalose and 100 μM 5(6)-carboxyfluorescein (CF). As it is known in the art, 5(6)-CF is an impermeable fluorescent marker with a molecular weight similar to that of sucrose and trehalose. This marker can be used to detect the liposome population using flow cytometry and is thus a useful and reliable indicator of loading efficiency. A single uniform population and intense FITC (Fluorescein isothiocyanate) peak verify liposome homogeneity and entrapment of the marker in the aqueous core.
In order to validate the methods described herein, human red blood cells and TF-1 (CRL2003, ATTC) cells were used as […] model systems. The mechanism of liposomal interaction with the cell is believed to be cell-type dependent and is believed to involve processes of adsorption, fusion and endocytosis.
FIGS. 1A to 1E are flow cytometry plots used to examine the effects of loading trehalose into red blood cells (RBCs). Liposomes composed of DPPC/cholesterol in the ratio of 70:30 were constructed so as to have a concentration of 0.29M trehalose inside and outside. […]
For orientation: In flow cytometry, cells or beads pass a laser one at a time.

As to 5(6)-carboxyfluorescein [CF], the “permeation of free CF into RBCs (fluorescence of RBCs in CF-containing media)” value was “cannot cross into RBCs”.
